From ChEMBL document CHEMBL5380773, “Novel Feleucin-K3-Derived Peptides Modified with Sulfono-γ-AA Building Blocks Targeting Pseudomonas aeruginosa and Methicillin-Resistant Staphylococcus aureus Infections” (J Med Chem, 2023)
In brackets after ≈: the same amount, converted by molar mass. Activity calls are given as the source filed them. The rule behind the calls is not given here. Numbered stars: 1 amine (or outer) side, 2 acyl side, 3 side chain; on linkers, the order of the positions; unused ones are H or OH. Square brackets hold non-standard residues; d marks the D form. Peptide text beside a SMILES is read from it. * marks the point of attachment. X2 = CC(C)C[C@H](N)CN(CC(=O)[*:2])[*:1]; X1 = O=S(=O)(c1ccc(I)cc1)*

What was measured:
[1] = tested on: Pseudomonas aeruginosa; assay: Bactericidal activity against Pseudomonas aeruginosa ATCC 27853 at 4 times MIC after 5 mins by time kill assay; format: functional, organism-based
[2] = tested on: Pseudomonas aeruginosa; assay: Induction of DNA leakage in Pseudomonas aeruginosa ATCC 27853 after 1 to 6 hrs; format: functional, organism-based; details: time 1-6 hrs
[3] = tested on: Staphylococcus aureus; assay: Antimicrobial activity against methicillin resistant Staphylococcus aureus ATCC 33591 incubated for 18 hrs by microdilution method; format: functional

CC(C)C[C@H](N)CN(CC(=O)N[C@@H](CCCCN)C(=O)N[C@@H](CC(C)C)C(=O)N[C@@H](CC(C)C)C(=O)N[C@@H](CCCCN)C(=O)N[C@@H](CCCCN)C(=O)N[C@@H](CC(C)C)C(=O)N[C@@H](CC(C)C)C(N)=O)S(=O)(=O)c1ccc(I)cc1 (X1-[X2]KLLKKLL-NH2)
Activity [1]: Active | Activity [2]: Dose-Dependent Effect | MIC [3]: 2.8 µg/mL (≈ 2.19 µM)
